{"source": "paper doi:10.1101/2023.02.06.527370", "about": "“A remarkable transformation catalyzed by a domain-of-unknown-function 692 during the biosynthesis of a new RiPP natural product” (bioRxiv, 2023)", "target": "T1, ChrHI (ChrH with ChrI) (Chryseobacterium sp. JM1, UniProt A0A086ASD2)", "T1 construct": "gene IW22_14845", "T1 sequence (A0A086ASD2 entry or part of it)": "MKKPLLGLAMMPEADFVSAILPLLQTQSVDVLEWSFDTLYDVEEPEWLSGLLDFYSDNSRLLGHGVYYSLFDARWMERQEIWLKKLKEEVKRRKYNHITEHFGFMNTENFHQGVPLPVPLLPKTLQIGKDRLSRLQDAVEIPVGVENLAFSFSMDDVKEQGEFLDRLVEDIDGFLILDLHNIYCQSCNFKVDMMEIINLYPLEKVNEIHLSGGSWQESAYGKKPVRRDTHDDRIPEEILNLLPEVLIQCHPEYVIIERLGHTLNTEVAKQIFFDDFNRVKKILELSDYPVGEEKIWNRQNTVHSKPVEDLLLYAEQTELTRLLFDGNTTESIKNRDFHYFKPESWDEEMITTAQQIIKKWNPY", "test": "MALDI-TOF MS of in vitro reaction products after LysC digestion", "format": "biochemical", "settings": "precursor peptide ChrA as co-substrate, DTT, aerobic, iron-containing enzyme; methyl donor; also run with 13CD3-SAM (labelled compound)"}
{"smiles": "C[S+](CC[C@H](N)C(=O)O)C[C@H]1O[C@@H](n2cnc3c(N)ncnc32)[C@H](O)[C@@H]1O", "note": "(stereo partly shown) [SAM, S-adenosylmethionine]", "values": [{"measurement": "MALDI-TOF MS of in vitro reaction products after LysC digestion", "value": "SAM is the methyl donor in the posttranslational modification of ChrA by ChrHI"}]}
